According to US12030908B2, “Antimicrobial compounds, compositions, and uses thereof” (Lakewood Amedex, Inc., priority 2017, dated 2024):
“And” between values parts separate entries of the source, which are not always exact repeats. Equal values may be shown once.

Test system: Aspergillus fumigatus (ATCC13073)
Assay: Neutropenic lung infection model in mice, lung fungal burden and mortality (Example 24)
Format: in vivo, BALB/c mice
Procedure: Neutropenic, BALB/c female mice, all of which were from 6 to 8 weeks of age, were infected intranasally with Aspergillus fumigatus (ATCC13073) at inoculum strengths of ˜1×10^6 conidia/animal (Part A) and ˜1×10^4 conidia/animal (Part B). Twenty four hours after infection, animals were treated by aerosol route with vehicle and Nu-8 (10% solution) for one, two, three, and five days. Two hours following treatment, groups of mice were terminated on days 1, 3, and 5, and lungs were collected to determine fungal load. A similar procedure was followed at inoculum strengths of ˜1×10^3 conidia/animal (Part C) and ˜1×10^2 conidia/animal (Part D).
This experiment was performed in four parts: Part A (infection with 1×10^6 conidia/animal), Part B (infection with 1×10^4 conidia/animal), Part C (infection with 1×10^3 conidia/animal), and Part D (infection with 1×10^2 conidia/animal). The mice were separated into cohorts in accordance with Table 13 (Part A), Table 14 (Part B), Table 15 (Part C), and Table 16 (Part D).
On day −4 (four days before the date of infection), each mouse was dosed with a single intraperitoneal injection of cyclophosphamide equivalent to 150 mg/kg and returned to its cage. On day −1 (one day before infection) each mouse received a dose equivalent to 100 mg/kg of cyclophosphamide. Neutropenia was confirmed with differential leukocyte count on day 0.
One week before infection, an aliquot from the glycerol stocks of Aspergillus fumigatus (ATCC13073) was taken and grown on Potato Dextrose Agar (PDA) plates for seven days in an incubator at 25° C. After seven days, conidia were collected by scraping the colonies from the PDA plate with a sterile loop and washing the surface of the plate with sterile distilled water. The conidial suspension was collected into a sterile tube and filtered through 10 layers of sterile cheese (muslin) cloth/Whatman filter paper to remove hyphal fragments from the spore suspension. The optical density of the filtered suspension was adjusted to an equivalent of ˜1×10^8 conidia/ml. The inoculum was serially diluted in normal saline and viability was checked by hemocytometer.
Animals were divided into different groups as specified in the experimental design (Tables 13-16). Infections were conducted in a biological safety cabinet, with appropriate personnel protection. Mice were placed into an induction chamber and anesthesia was induced by exposing the animals to 3%-5% Isoflurane in an oxygen flow set at approximately 1 liter per minute (LPM). Once the animals were in a sufficiently deep plane of anesthesia, they were removed and infected. Infection was done by injection of 0.02 ml (containing ˜1×10^8 CFU/ml for Part A, ˜1×10^6 CFU/ml for Part B, ˜1×10^5 CFU/ml for Part C, and ˜1×10^4 CFU/ml for Part D). 10 μl was instilled into each nostril of the anesthetized animal (˜2×10^6 CFU/animal for Part A, ˜2×10^4 CFU/animal for Part B, ˜2×10^3 CFU/animal for Part C, ˜2×10^2 CFU/animal for Part D) using a 10 μl pipette. A gentle shaking/mixing of inoculum between two animals was followed for uniform distribution.
The vehicle used for the test compound was saline (0.9% NaCl adjusted to pH 3.5 with citric acid). To make 10% solution, 15 g Nu-8 was weighed and dissolved in 145 ml of the saline and the pH of the solution was adjusted to 3.5 with citric acid (0.1 M) in a final volume of 150 ml.
Treatment began twenty four hours after infection. Test formulations were administered by aerosol route with nose only apparatus connected to a nebulizer (Omron Ne-C28 Compressor Nebulizer with a volume capacity of 15 ml, Particle size 3 μm, Nebulization rate: 0.5 ml/min and Aerosol output rate: 0.09 ml/min). Test formulations were placed into the nebulizer fluid cup; animals were placed in the nose-only apparatus, and the entire system was placed inside a Class II Biosafety Cabinet. […]

Compound: CCCCOP(=O)(O)OC[C@H]1O[C@@H](n2ccc(N)nc2=O)C[C@@H]1OP(=O)(O)OCCCC [Nu-8, sodium ((2R,3S,5R)-5-(4-amino-2-oxopyrimidin-1(2H)-yl)-3-((butoxyoxidophosphor-yl)oxy)tetrahydrofuran-2-yl)methyl butyl phosphate]
- Log10 CFU/g lung (Part A, 1×10^6 conidia/animal, 10% aerosol single dose, individual mice): 6.16 Log10 CFU/g lung and 5.71 Log10 CFU/g lung and 4.51 Log10 CFU/g lung and 5.41 Log10 CFU/g lung and 5.14 Log10 CFU/g lung and 5.76 Log10 CFU/g lung
- % Mortality (Part A, 10% aerosol, 3 doses, once daily for 3 days, day 3): 50% and 50 [day 3] %
- Log10 CFU/g lung (Part A, 10% aerosol, 3 doses, once daily for 3 days, individual surviving mice): 4.96 Log10 CFU/g lung and 5.48 Log10 CFU/g lung and 3.23 Log10 CFU/g lung
- Mean ± SD (Log10 CFU/g lung) (Part A, 10% aerosol, 3 doses, once daily for 3 days, n = 3): 4.56 ± 1.18 Log10 CFU/g lung
- Log10 CFU/g lung (Part A, 10% aerosol, 5 doses, once daily for 5 days, individual surviving mice): 4.28 Log10 CFU/g lung and 4.06 Log10 CFU/g lung
- Mean (Log10 CFU/g lung) (Part A, 10% aerosol, 5 doses, once daily for 5 days, n = 2): 4.17 (n = 2) Log10 CFU/g lung
- efficacy vs day 1 control and day 3 vehicle controls (Part A, day 3 and day 5): marked efficacy
- efficacy vs vehicle control (Part A, single dose (day 1), p>0.05): did not show significant efficacy
- mean fungal count (Part A, treated with Nu-8 (10%) for three days, day 3): 4.56 log10 spores/g lung
- mean fungal count (Part A, treatment with Nu-8 (10%), day 5): 4.17 log10 spores/g lung
- Mean ± SD (Log10 spores/g lung) (Part B, 1×10^4 conidia/animal, 10% aerosol single dose (Table 20 group 3), terminated day 3): 4.41±0.29 Log10 spores/g lung
- Log10 spores/g lung (Part B, 1×10^4 conidia/animal, 10% aerosol single dose, terminated day 3, individual mice): 3.99 Log10 spores/g lung and 4.72 Log10 spores/g lung and 4.51 Log10 spores/g lung and 4.83 Log10 spores/g lung and 4.23 Log10 spores/g lung and 4.45 Log10 spores/g lung and 4.14 Log10 spores/g lung and 4.34 Log10 spores/g lung
- Mean ± SD (Log10 spores/g lung) (Part B, 10% aerosol, 3 doses, once daily for 3 days): 4.31±0.29 Log10 spores/g lung
- Log10 spores/g lung (Part B, 10% aerosol, 3 doses, once daily for 3 days, individual mice): 4.29 Log10 spores/g lung and 4.45 Log10 spores/g lung and 3.93 Log10 spores/g lung and 4.28 Log10 spores/g lung and 4.34 Log10 spores/g lung and 4.87 Log10 spores/g lung and 4.24 Log10 spores/g lung and 4.03 Log10 spores/g lung
- Mean ± SD (Log10 spores/g lung) (Part C, 1×10^3 conidia/animal, 10% aerosol, 3 doses, once daily for 3 days): 3.65±0.50 Log10 spores/g lung
- Log10 spores/g lung (Part C, 1×10^3 conidia/animal, 10% aerosol, 3 doses, once daily for 3 days, individual mice): 4.30 Log10 spores/g lung and 3.67 Log10 spores/g lung and 3.46 Log10 spores/g lung and 4.05 Log10 spores/g lung and 3.54 Log10 spores/g lung and 2.85 Log10 spores/g lung
- Mean ± SD (Log10 spores/g lung) (Part D, 1×10^2 conidia/animal, 10% aerosol, 5 doses, once daily for 5 days): 2.49±0.16 Log10 spores/g lung
- Log10 spores/g lung (Part D, 1×10^2 conidia/animal, 10% aerosol, 5 doses, once daily for 5 days, individual mice): 2.71 Log10 spores/g lung and 2.23 Log10 spores/g lung and 2.50 Log10 spores/g lung and 2.52 Log10 spores/g lung and 2.44 Log10 spores/g lung and 2.56 Log10 spores/g lung
